Laboratory results from article PMC7465469, “Inhibition of the Lysophosphatidylinositol Transporter ABCC1 Reduces Prostate Cancer Cell Growth and Sensitizes to Chemotherapy” (Cancers, 2020).

Molecular target: T1, ABCC1 (Homo sapiens, UniProt P33527)
T1 construct: wild-type ABCC1 (pcDNA3-ABCC1) transiently expressed in HEK293T cells
Assay: Calcein-AM efflux, two-colour flow cytometry in ABCC1-transfected HEK293T cells
Assay type: cell-based

T1 sequence (P33527 whole entry): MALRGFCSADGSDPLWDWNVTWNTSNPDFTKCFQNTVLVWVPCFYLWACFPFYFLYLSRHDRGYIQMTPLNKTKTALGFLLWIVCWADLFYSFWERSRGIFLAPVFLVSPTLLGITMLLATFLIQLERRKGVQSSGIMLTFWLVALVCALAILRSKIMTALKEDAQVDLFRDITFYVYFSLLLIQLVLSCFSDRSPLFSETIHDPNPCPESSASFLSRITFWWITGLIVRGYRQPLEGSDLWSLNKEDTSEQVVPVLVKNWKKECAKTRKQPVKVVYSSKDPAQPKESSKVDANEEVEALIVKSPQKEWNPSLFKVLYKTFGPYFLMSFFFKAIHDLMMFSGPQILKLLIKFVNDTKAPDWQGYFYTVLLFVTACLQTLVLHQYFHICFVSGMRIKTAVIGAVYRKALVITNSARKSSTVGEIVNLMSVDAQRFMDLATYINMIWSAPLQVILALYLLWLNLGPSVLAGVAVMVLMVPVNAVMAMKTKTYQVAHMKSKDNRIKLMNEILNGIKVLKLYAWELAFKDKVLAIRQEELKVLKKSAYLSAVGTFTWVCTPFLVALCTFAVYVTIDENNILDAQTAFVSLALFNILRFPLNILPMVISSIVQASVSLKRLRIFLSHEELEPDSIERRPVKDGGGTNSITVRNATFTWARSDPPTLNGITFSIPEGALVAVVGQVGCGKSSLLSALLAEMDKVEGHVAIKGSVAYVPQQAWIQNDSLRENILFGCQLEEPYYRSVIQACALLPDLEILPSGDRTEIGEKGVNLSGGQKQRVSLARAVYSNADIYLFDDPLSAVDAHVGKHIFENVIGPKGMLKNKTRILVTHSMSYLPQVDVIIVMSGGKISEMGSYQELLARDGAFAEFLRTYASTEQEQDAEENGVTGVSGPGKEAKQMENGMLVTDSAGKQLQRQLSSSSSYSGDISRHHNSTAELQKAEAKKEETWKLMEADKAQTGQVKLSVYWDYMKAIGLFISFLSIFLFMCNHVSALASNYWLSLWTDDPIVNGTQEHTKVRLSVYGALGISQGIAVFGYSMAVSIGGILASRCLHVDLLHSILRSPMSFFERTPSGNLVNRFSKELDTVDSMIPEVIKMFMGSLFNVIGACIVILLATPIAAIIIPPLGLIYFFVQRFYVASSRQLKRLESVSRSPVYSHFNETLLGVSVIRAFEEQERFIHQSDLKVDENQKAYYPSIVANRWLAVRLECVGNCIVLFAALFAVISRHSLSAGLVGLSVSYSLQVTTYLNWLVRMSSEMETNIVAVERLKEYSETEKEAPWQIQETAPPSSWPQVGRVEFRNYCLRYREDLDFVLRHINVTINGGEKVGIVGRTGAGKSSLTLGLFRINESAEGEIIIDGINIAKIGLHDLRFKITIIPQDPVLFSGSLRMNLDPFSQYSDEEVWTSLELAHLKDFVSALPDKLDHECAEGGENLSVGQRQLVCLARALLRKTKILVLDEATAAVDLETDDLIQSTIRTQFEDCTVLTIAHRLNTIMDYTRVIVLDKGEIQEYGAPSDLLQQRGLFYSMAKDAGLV

## CC1=C(CC(=O)O)c2cc(F)ccc2/C1=C\c1ccc([S+](C)[O-])cc1 (stereo not shown) [Sulindac]
  IC50: 106 µM
